A short description of data set [1]: Serum levels after single dose IV application in rats, mass spectroscopy. Format: in vivo. The note with it: 27.5 and 55 μg IV, 2 and 20 minutes. How it is done:
COM 56 was diluted in saline-buffer to 100 μM and 200 μM in a volume of 200 μL. The probe was administered intravenously in rats. After 2 min and 20 min a blood probe was taken from the right carotid artery. The blood probes were centrifuged by 2500 g for 3 min and the supernatant, the serum component, were analysed by mass spectroscopy.

The target in the next data set is T1, IKK-complex (Homo sapiens, UniProt O14920+O15111+Q9Y6K9).
T1 construct: IKK-complex was immunoprecipitated with anti-NEMO-antibody; endogenous in cells; host or cells: HeLa
T1 sequence (O14920 whole entry): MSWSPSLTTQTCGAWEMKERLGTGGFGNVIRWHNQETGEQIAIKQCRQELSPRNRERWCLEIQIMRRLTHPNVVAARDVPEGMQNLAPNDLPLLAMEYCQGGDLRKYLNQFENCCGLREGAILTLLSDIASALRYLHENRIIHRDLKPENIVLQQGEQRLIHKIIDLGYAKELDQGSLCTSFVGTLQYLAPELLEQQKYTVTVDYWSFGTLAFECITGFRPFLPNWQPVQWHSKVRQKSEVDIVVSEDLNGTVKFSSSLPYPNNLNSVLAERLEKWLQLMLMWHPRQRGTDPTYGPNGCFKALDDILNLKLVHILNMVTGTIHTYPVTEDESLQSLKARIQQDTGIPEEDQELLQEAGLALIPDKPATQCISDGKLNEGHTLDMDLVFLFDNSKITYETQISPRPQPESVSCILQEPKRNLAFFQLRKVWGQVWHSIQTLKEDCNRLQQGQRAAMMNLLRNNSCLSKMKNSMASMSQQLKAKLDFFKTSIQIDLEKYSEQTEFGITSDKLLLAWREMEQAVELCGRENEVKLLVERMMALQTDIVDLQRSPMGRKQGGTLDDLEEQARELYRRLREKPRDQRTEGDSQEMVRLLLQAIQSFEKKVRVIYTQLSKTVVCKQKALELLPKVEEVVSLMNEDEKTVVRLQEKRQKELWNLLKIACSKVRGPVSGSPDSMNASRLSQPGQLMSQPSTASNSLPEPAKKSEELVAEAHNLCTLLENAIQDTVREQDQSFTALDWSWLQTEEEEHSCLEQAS
T1 sequence (O15111 whole entry): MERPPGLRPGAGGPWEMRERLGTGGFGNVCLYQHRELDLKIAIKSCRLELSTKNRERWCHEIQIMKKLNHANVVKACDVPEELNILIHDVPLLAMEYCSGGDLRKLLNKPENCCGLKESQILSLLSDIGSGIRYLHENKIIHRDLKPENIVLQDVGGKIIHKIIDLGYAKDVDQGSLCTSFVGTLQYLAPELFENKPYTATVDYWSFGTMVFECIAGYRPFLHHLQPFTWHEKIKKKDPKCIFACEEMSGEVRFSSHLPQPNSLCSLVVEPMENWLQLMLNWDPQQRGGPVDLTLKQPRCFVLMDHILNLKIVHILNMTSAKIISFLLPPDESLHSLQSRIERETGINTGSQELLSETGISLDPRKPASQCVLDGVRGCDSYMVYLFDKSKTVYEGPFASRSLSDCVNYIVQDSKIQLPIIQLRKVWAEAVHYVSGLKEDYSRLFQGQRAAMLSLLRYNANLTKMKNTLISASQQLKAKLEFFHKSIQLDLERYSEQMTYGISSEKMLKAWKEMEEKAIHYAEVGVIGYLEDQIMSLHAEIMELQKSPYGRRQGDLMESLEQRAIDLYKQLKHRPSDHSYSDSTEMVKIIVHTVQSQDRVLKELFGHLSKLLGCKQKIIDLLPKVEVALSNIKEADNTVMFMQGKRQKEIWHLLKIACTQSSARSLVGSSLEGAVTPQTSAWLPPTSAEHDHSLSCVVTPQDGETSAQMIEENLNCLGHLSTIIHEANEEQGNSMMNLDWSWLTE
T1 sequence (Q9Y6K9 whole entry): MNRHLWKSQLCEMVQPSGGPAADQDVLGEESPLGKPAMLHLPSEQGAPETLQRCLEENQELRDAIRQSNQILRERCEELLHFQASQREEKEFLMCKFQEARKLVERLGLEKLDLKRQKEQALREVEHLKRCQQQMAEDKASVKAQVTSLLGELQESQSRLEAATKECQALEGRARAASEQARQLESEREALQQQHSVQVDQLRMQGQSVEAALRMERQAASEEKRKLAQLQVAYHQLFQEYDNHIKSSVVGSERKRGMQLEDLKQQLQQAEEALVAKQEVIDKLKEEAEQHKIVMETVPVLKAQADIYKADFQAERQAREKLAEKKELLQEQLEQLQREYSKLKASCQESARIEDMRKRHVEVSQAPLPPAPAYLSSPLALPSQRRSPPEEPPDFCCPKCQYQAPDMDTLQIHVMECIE
In words: Cellular IKK kinase assay: HeLa cells treated with compound, TNF alpha stimulation, IKK-complex immunoprecipitated with anti-NEMO-antibody, I kappaB peptide phosphorylation by alpha screen. Format: cell-based. How it is done: Kinase Assay Protocol: HeLa cells were maintained in Dulbecco's modified Eagle's medium (Invitrogen) supplemented with 10% fetal bovine serum, 2 mM L-glutamine, penicillin (50 units/ml) and streptomycin (50 μg/ml). 24 h before treatment with different compounds HeLa cells were plated at a density of 5×10^6 per well in 100-mm cell culture dishes to 90% confluences.
The cells were incubated with different drugs at the concentration indicated for 1 h, washed twice with PBS and stimulated with 20 ng/ml TNF alpha (Roche). After 7 min the cells were washed twice with ice cold PBS followed by scraping and transferring into a 1.5 ml microcentrifuge tube. After centrifugation by 2000 rpm for 2 min by 4° C. the PBS supernatant was removed and 200 μl Lyse-buffer (10 mM Hepes, pH 7.9, 0.1% NP40, 10 mM, 300 mM Sucrose, 10 mM KCl, 15 mM MgCl2, 1 mM DTT, 0.5 mM PMSF and antipain, aprotinin, leupeptin each 0.75 μg/ml (Sigma) was added to the pellet. The resuspended pellet was incubated on ice for 5 min and centrifuged at 13000 g for 30 s. The supernatant, cytosolic extract, was added to 200 μl TNT-buffer (200 mM NaCl, 20 mM Tris/HCl pH 7.5, 1% Triton X-100). Unspecific binding was blocked by incubation with 3 μg of normal rabbit IgG (Sigma) and 6 mg resuspended and prewashed Protein A Sepharose CI-4B (Pharmacia Biotech) for 30 min by 4° C. followed by immunoprecipitation for 1.5 h at 4° C. with 2 μg of anti-NEMO-antibody (Santa Cruz Biotechnology) and 6 mg resuspented and prewashed Protein A Sepharose CI-4B (Parmacia Biotech). […] 6.6 μl of detection-buffer (20 mM Hepes pH 7.5, 100 mM NaCl, 1% Tween, 0.1 mM BSA, 50 μg/ml Protein A-Acceptor beads, 250 μg/ml Streptavidin-Donor beads (both Perkin-Elmer), 4 nM anti-phospho-IKB antibody (Santa Cruz Biotechnology) was dispensed to each well. After incubation for 1.5 h the plate was measured by alpha screen reader (Perkin Elmer). […]

For `CCOC(=O)C1=C(C)N=c2s/c(=C/c3ccc(-c4cccc(C(=O)O)c4)o3)c(=O)n2C1c1ccc(Cl)cc1` (stereo not shown) [COM 56, 2-[5-(3-Carboxyphenyl)-furan-2-ylmethylene]-5-(4-chlorophenyl)-7-methyl-3-oxo-2,3-dihydro-5H-thiazolo[3,2-a]pyrimidine-6-carboxylic acid ethyl ester], the “serum levels after single IV application” value in data set [1] is listed as “considerable serum levels”; in data set [1] (listed as compound 56) it was “positive serum probes”. Besides, the IC50 at IKK-complex (HeLa cells, TNF alpha 20 ng/ml, alpha screen, n=4, read-out: IC50 for inhibition of IKK activity (phosphorylation of substrate peptide for I KappaB)) is roughly 850 nM. Also, the “potency to inhibit the IKK activity, higher than the other 73 family members” value on IKK-complex (cellular assay with HeLa cells) was 10 times.
